Laboratory results taken from patent publication US8618077B2, “Compositions and methods for treating fragile X premutation RVGG repeats-mediated toxicity” (Emory University, priority 2011, dated 2013).

Columns and labels:
[1] = tested on: flies expressing fragile X premutation rCGG repeats (elav-GAL4/+; UAS-CGG90-EGFP/+); assay: Chemical screen / viability assay: rescue of lethality caused by neuronal expression of fragile X premutation rCGG90 repeats; type: in vivo, Drosophila; settings: for recovery of dFmr1 CGG90 mutant flies: 40 microM of compound in the food, 0% on food alone
Source text: In particular, embodiments of the present disclosure include methods of screening compounds using a drosophila (fruit fly) based compound screen to identify drug candidates for the treatment of the fragile X-associated tremor/ataxia syndrome or other neurodegenerative disorders. […] A fly line of UAS-CGG90-EGFP transgene balanced with Cyo balancer carrying hs-hid transgene was generated. Upon heat shock, the expression of hid was activated, which led to cell death and lethality in the CGG90 dFmr1 premutation fly embryos.
The mutant embryos were placed into an appropriate container (e.g., a 96-well container) containing a food with or without a compound from a library of drugs candidates. 5 μM and 40 μM of individual compounds from a library of 2,000 FDA approved drugs and natural products (The Spectrum Collection™) were screened. Vials were then kept at 25° C. for 10 to 15 days to score for viability. The efficacy of the drug candidate was determined by scoring the number of pupae formation or the emergence of adult flies after a certain time frame. Embodiments of the present disclosure provide a screen for compounds that directly and indirectly regulate dFmr1 rCGG repeat mediated toxicity and rescue mutant flies from heat shock induced lethality. Additional details regarding the active compositions and disorders are described in the Examples below.
A Drosophila disease model of FXTAS and provided experimental evidence that fragile X premutation rCGG repeats alone are sufficient to cause neurodegeneration in a repeat-dosage manner. See Jin et al., Neuron, 2003, 39:739-747. […] Lethality occurs primarily during embryonic development before larval formation. Taking advantage of this lethality, a high-throughput strategy was designed to screen chemical libraries for small molecules relevant to FXTAS. the UAS-CGG90-EGFP transgene was balanced with a chromosome carrying a curly wing (Cyo) marker recombined with a heat shock-inducible apoptotic hid (hs-hid) transgene (w1118, UAS-CGG90-EGFP/TM2 Cyo:hs-hid). Next, the viability of adult progeny was tested using the Drosophila GAL4/UAS system. crosses of UAS-CGG90-EGFP/TM2 Cyo:hs-hid were performed with homozygous pan-neuronal elav-Gal4 driver. There was an absence of heterozygous non-Cyo adult progeny (elav-GAL4/+; UAS-CGG90-EGFP/+), which confirmed that rCGG90 repeat expression in neurons leads to lethality. The only living progenies would carry elav-GAL4/+; +/TM2 Cyo:hs-hid. Furthermore, upon heat shock, the progenies carrying elav-GAL4/+; +/TM2 Cyo:hs-hid also died, because the expression of hid leads to cell death and lethality at embryonic stages that are otherwise viable.
Since the rescue of the lethality was an easily scored phenotype, one is able to use this assay to conduct a chemical screen to identify the small molecules that can improve/restore the viability of the flies expressing fragile X premutation rCGG repeats. As depicted in schematic representation (FIG. 1A), crosses between elav-GAL4 and UAS-CGG90-EGFP/TM2 Cyo:hs-hid were raised as well as control flies into food supplemented with 40 μm of individual unique compounds from a library of 2000 US Food and Drug Administration (FDA)-approved drugs and natural products (The Spectrum Collection, MicroSource Discovery Systems, Inc.). […]

dFmr1 CGG90 mutant flies = assay: Locomotion assay (Drosophila Activity Monitor) in flies expressing rCGG90 repeats (UAS-CGG90-EGFP/nervana-GAL4); type: in vivo; settings: for percentage of normal locomotion activity in dFmr1 CGG90 mutant flies: compound-treated flies, 50% without treatment; for effect on locomotion deficits caused by fragile X premutation rCGG repeats (in words): flies fed food containing the compound, mean locomotor activity over 7 days
Method: FIG. 2A illustrates the identification of small molecules that can ameliorate the locomotion deficits caused by fragile X premutation rCGG repeats. Nervana-GAL4 driver and UAS-CGG90-EGFP/Cyo were crossed to produce progeny embryos on food supplemented with or without selected compounds as indicated. Adult progeny of genotype UAS-CGG90-EGFP/nervana were selected and 32 female virgins 48 h old were subsequently monitored for locomotor activity continuously for several weeks. The locomotion of 32 flies that were fed with fly food containing the compound each time were simultaneously monitored.
To further validate these compounds, a secondary behavioral assay was developed. In this assay, UAS-CGG90-EGFP transgenic flies were crossed with nervana-GAL4, which could drive the expression of fragile X rCGG repeats in CNS, albeit weakly, allowing us to analyze adult flies for locomotion deficits. The expression of rCGG repeats leads to locomotion defects (FIG. 2A). […] The progeny flies (UAS-CGG90-EGFP/nervana-GAL4) were collected to monitor locomotion. To continuously monitor the locomotion for a given fly, a Drosophila Activity Monitor (DAM) system was established for this purpose. See Pfeiffenberger et al., Locomotor activity level monitoring using the Drosophila Activity Monitoring (DAM) System. Cold Spring Harb. Protoc. 2010.
For each individual compound, the locomotion of 32 flies were simultaneously monitored that were fed with fly food containing the compound each time. The data were collected and analyzed for locomotor activity (FIG. 2B). Each drug treatment was repeated at least three times.

[2] = tested on: release of arachidonic acid; settings: cited from earlier work

| Compound | recovery of dFmr1 CGG90 mutant flies [1] [%] | percentage of normal locomotion activity in dFmr1 CGG90 mutant flies (dFmr1 CGG90 mutant flies) [%] | effect on locomotion deficits caused by fragile X premutation rCGG repeats (in words) (dFmr1 CGG90 mutant flies) | suppression of lethality caused by fragile X premutation rCGG repeats (in words) ([1]; 40 μm compound in food, heat shock at day 2, scored after 10-15 days) | effect on locomotion deficits caused by fragile X premutation rCGG repeats (in words) (dFmr1 CGG90 mutant flies; listed as Fluocinolone acetonide) | effect on locomotion deficits caused by fragile X premutation rCGG repeats (in words) (dFmr1 CGG90 mutant flies; listed as fluocinolone acetonide) | release of arachidonic acid [2] | effect on locomotion deficits caused by fragile X premutation rCGG repeats (in words) (dFmr1 CGG90 mutant flies; listed as xylazine) |
| --- | --- | --- | --- | --- | --- | --- | --- | --- |
| COc1ccc(C(=O)/C=C/c2ccccc2)cc1 [4′-methoxy chalcone] | 3 | 75 | significant suppression of the locomotion activity deficit |  |  |  |  |  |
| C[C@@H]1C[C@H]2[C@@H]3CCC4=CC(=O)C=C[C@]4(C)[C@@]3(F)[C@@H](O)C[C@]2(C)[C@@]1(O)C(=O)CO [dexamethasone] | 5 | 90 |  |  |  |  |  |  |
| CC1(C)O[C@@H]2C[C@H]3[C@@H]4C[C@H](F)C5=CC(=O)C=C[C@]5(C)[C@@]4(F)[C@@H](O)C[C@]3(C)[C@]2(C(=O)CO)O1 [fluocilone acetonide] | 7.5 | 99 | significant suppression of the locomotion activity deficit | suppress both lethality and locomotion deficits | significantly ameliorate the locomotion defects | suppress both lethality and locomotion deficits |  |  |
| CCN(CC)CCCC(C)Nc1c2ccc(Cl)cc2nc2ccc(OC)cc12 (stereo not shown) [quinacrine] |  |  |  |  |  |  | blocked |  |
| Cc1cccc(C)c1N=C1NCCCS1 [xylaxine] | 5 | 80 | significant suppression of the locomotion activity deficit |  |  |  |  | significantly ameliorate the locomotion defects |
